Experimental data from paper PMC10522709, “Rational design and characterization of cell-selective antimicrobial peptides based on a bioactive peptide from Crocodylus siamensis hemoglobin” (Scientific Reports, 2023).
Ends that are not written are not given here.

What was measured:
E. coli (ATCC25922) = test: Time-killing kinetics assay; assay type: cell-based, Escherichia coli
Protocol: (§1) The time-killing kinetics of peptide was determined as described previously by Yaraksa et al.[16] In short, E. coli (ATCC25922) and S. epidermidis (ATCC12228) cells grown overnight were diluted in the Nutrient broth to a concentration of 1 × 10^6 CFU/mL. The diluted bacterial suspension (50 µL) was incubated with the peptide solution (50 µL, final concentration = 1 × MIC or 2 × MIC) at 37 °C. 10 µL of the mixture was taken at regular time intervals (0, 15, 30, 60, 180, 360, 540 and 720 min for 1 × MIC and 0, 30, 60, 180, 360, 720, 1440, 2160 and 2880 min for 2 × MIC), diluted and cultured on nutrient agar plates for 24 h. Bacterial cells were then counted and a graph of the log CFU/mL against incubation time was plotted to evaluate the rate at which peptides kill bacterial cells.

[1] = test system: S. epidermidis (ATCC12228); test: Time-killing kinetics assay; assay type: cell-based, Staphylococcus epidermidis; conditions: 1 × MIC, 37 °C, colony count
Protocol: as §1

[2] = test system: Staphylococcus epidermidis (ATCC 12228); assay type: cell-based; conditions: ATCC 12228, 24 h
Protocol: (§2) Broth microdilution assays were performed as reported previously. In short, the bacteria including Escherichia coli (ATCC 25922), Klebsiella pneumoniae (ATCC 27736), Pseudomonas aeruginosa (ATCC 27853), Bacillus subtilis (ATCC 6633), Staphylococcus aureus (ATCC 25923) and Staphylococcus epidermidis (ATCC 12228) were grown in Nutrient broth to mid-log phase at 37 °C. The bacterial suspension (50 μL, concentration of 1 × 10^6 CFU/mL) was loaded into a well with serially diluted peptide (50 µL, final concentrations ranging from 0–200 μg/mL) in a sterile 96-well plate and incubated at 37 °C for 18 h. The optical density (OD) at 600 nm was measured using a microplate reader (ALLSHENG, Zhejiang, China) in order to determine the growth of the bacteria. The inhibition was estimated using the formula; %inhibition=OD600ofcontrol-OD600ofsample/OD600ofcontrol-OD600ofblank×100 where minimal inhibitory concentration (MIC) is defined as the minimum concentration that inhibited 90% of bacterial growth.
(§3) In order to evaluate the minimal bactericidal concentration (MBC)—the lowest concentration that terminates the growth of bacteria on an agar plate—of the peptide, co-culture medium (100 μL) from each well after the microdilution assay was spread on a nutrient agar plate. Plates were maintained at 37 °C for 24 h and the number of colonies formed was counted to evaluate antimicrobial activity.

[3] = test system: Pseudomonas aeruginosa (ATCC 27853); assay type: cell-based; conditions: ATCC 27853, 24 h
Protocol: as §2, §3

[4] = test system: Staphylococcus aureus (ATCC 25923); assay type: cell-based; conditions: ATCC 25923, 24 h
Protocol: as §2, §3

[5] = test system: Bacillus subtilis (ATCC 6633); assay type: cell-based; conditions: ATCC 6633, 24 h
Protocol: as §2, §3

[6] = test system: Klebsiella pneumoniae (ATCC 27736); assay type: cell-based; conditions: ATCC 27736, 24 h
Protocol: as §2, §3

[7] = test system: Escherichia coli (ATCC 25922); assay type: cell-based; conditions: ATCC 25922, 24 h
Protocol: as §2, §3

[8] = test system: EcoRI-digested Lambda (λ) DNA; test: Gel retardation assay; assay type: binding; conditions: 200 ng λ DNA, peptide 4, 6, 8, 16 µg/mL, 60 min, room temperature, 0.8% agarose gel
Protocol: DNA used for this test was Lambda (λ) DNA, which had been digested with EcoRI into fragments sized 21,226, 7421, 5804, 5643, 4878 and 3530 bp (Thermo Fisher Scientific, Waltham, MA, USA). The gel retardation assay was run by mixing 200 ng of λ DNA with different concentrations of IL15.3 at 1 × MIC (4 µg/mL), 2 × MIC (8 µg/mL), 4 × MIC (16 µg/mL) and MBC (6 µg/mL) of E. coli. The mixtures were incubated for 60 min at room temperature and subjected to electrophoresis on a 0.8% agarose gel. Gel was then stained with ViSafe Red gel stain (Vivantis, Selangor Darul Ehsan, Malaysia). Subsequently, DNA bands were photographed using G-box gel documentation (Syngene, USA).

human erythrocytes = assay type: cell-based; conditions: red cells of human, 1 h
Protocol: Human whole blood was obtained from Blood Transfusion Center Faculty of Medicine Khon Kaen University (ethical approval number HE601010). Fresh human erythrocytes were carefully mixed with PBS (1:3) and centrifuged at 1000 × g for 2 min. The supernatant was discarded and the cell pellet was resuspended to 2% w/v in PBS. 100 µL of the resuspended erythrocytes were incubated with the peptide (10 µL, final concentrations ranging from 12.5 to 100 μg/mL, two-fold serial dilution) at 37 °C for 1 h. After the treatment, the plate was centrifuged and the supernatant was taken to determine the optical density at 415 nm using a microplate reader (ALLSHENG, Zhejiang, China). The positive control for this assay was the addition of Triton X-100 (1% v/v), which causes 100% hemolysis. The negative control was cells treated with PBS buffer only. The hemolysis activity was estimated using the equation: %hemolysis=OD415ofsample/OD415ofTritonX-100treatedcontrol×100

[9] = test system: Staphylococcus epidermidis (ATCC 12228); assay type: cell-based; conditions: ATCC 12228, 18 h
Protocol: as §2

[10] = test system: Pseudomonas aeruginosa (ATCC 27853); assay type: cell-based; conditions: ATCC 27853, 18 h
Protocol: as §2

[11] = test system: Staphylococcus aureus (ATCC 25923); assay type: cell-based; conditions: ATCC 25923, 18 h
Protocol: as §2

[12] = test system: Bacillus subtilis (ATCC 6633); assay type: cell-based; conditions: ATCC 6633, 18 h
Protocol: as §2

[13] = test system: Klebsiella pneumoniae (ATCC 27736); assay type: cell-based; conditions: ATCC 27736, 18 h
Protocol: as §2

[14] = test system: Escherichia coli (ATCC 25922); assay type: cell-based; conditions: ATCC 25922, 18 h
Protocol: as §2

Sequence: IKHWKKVWKHAKKVL [IL15.3]
- increase in antimicrobial activity vs QL17: > 1000 fold
- time to inhibit the growth kinetic rate (E. coli (ATCC25922); 1 × MIC, 37 °C, 1 × 10^6 CFU/mL, colony count): ≤ 60 min
- time to completely stop growth (E. coli (ATCC25922); 1 × MIC, 37 °C, colony count): 180 min
- time to begin to inhibit growth kinetic rate (E. coli (ATCC25922); 2 × MIC, 37 °C, colony count): ≤ 30 min
- time to fully kill the cells (E. coli (ATCC25922); 2 × MIC, 37 °C, colony count): ≤ 180 min
- regrowth of cells (E. coli (ATCC25922); 2 × MIC, after 48 h): did not allow the cells to regrow
- time to inhibit the growth kinetic rate ([1]; 1 × 10^6 CFU/mL): ≤ 180 min
- time to completely stop growth [1]: 360 min
- MBC [2]: 12 mg/L
- MBC [3]: 18 mg/L
- MBC [4]: 25 mg/L
- MBC [5]: 12 mg/L
- MBC [6]: 25 mg/L
- MBC [7]: 6 mg/L
- interaction with DNA (gel retardation) [8]: binds to λ DNA fragments
- Hemolysis concentration50 (HC50) (human erythrocytes): >2000 µg/mL
- MIC [9]: 9 mg/L
- MIC [10]: 10 mg/L
- MIC [11]: 12 mg/L
- MIC [12]: 8 mg/L
- MIC [13]: 10 mg/L
- MIC [14]: 4 mg/L
